Data on 4 molecules can be found in US5767134A, “Prodrug forms of ribonucleotide reductase inhibitors 3-AP and 3-AMP” (Vion Pharmaceuticals, Inc., priority 1997, dated 1998).

As usually defined, the solubility is how much of the substance goes into solution per volume.

One series concerns L1210 leukemia. Conditions: compared with other HCTs reported to date; cited from earlier work.
For a further series, the system named is M-109 lung carcinoma. As to conditions: compared with other HCTs reported to date; cited from earlier work.
Series [1] relates to A2780 human ovarian carcinoma. As to conditions: compared with other HCTs reported to date; cited from earlier work.
For series [2] the following is noted: vs hydroxyurea; cited from earlier work.
Series [3] can be described thus: Conversion of Prodrug I (para) to 3-AP in vitro in presence of S9 fraction of rat liver (FIG. 9). It is filed as in vitro ADME. The procedure:
FIG. 9 depicts a graph of the conversion of Prodrug I (para) to 3-AP in the presence of liver S9 fraction.
A 1 μM solution of Prodrug I in culture media was incubated with approximately 2.5 mg of liver S9 fraction.

Series [4] can be described thus: Stability of Prodrug I in culture media alone, HPLC assay. It counts as in vitro ADME. As to conditions: 37° C., two hours.
Another series concerns M109 tumor cells. Kind of series: In vivo efficacy, M109 tumor growth in Balb/c mice (FIG. 10). As to conditions: 10 mg/kg per injection vs equal molar dose of 3-AP (4.5 mg/kg). The protocol: (§1) FIGS. 10 and 11 depict a graph comparing the reduction in M109 tumor growth in Balb/c Mice treated with a control, 3-AP or Prodrug I (para).
(§2) Balb/c mice were subcutaneously injected in the right flank on Day 0 with 0.2 mL of a 5×10^6 cell/mL suspension of M109 tumor cells which had been grown to log phase in culture, trypsin digested to separate, washed with PBS and reconstituted. Injections of 3-AP, Prodrug I, or Vehicle Control were given to the […] twice on Day 3, once on Day 4, twice on Day 6 and once on Day 7. Ten mice received only injections of 3 AP, each injection providing a dose of 4.5 mg/kg body weight. Ten mice received only injections of Prodrug I, each injection providing a dose of 10 mg/kg body weight. Ten mice received only injections of the vehicle control. […] FIG. 11 also compares the reduction in M109 tumor growth in Balb/c Mice using two vehicle controls (1-phosphate buffered […] and 2- 10% DMSO). […] Control I was used as a control for the prodrug; control 2 was used for the parent drug.
(§3) Balb/c mice were subcutaneously injected in the right flank on Day 0 with 0.2 mL of a 5×10^6 cell/mL suspension of M109 tumor cells which had been grown to log phase in culture, trypsin digested to separate, washed with PBS and reconstituted. […]

The test system of a further series is M109 tumor. Kind of series: M109 tumor growth in Balb/c mice with two vehicle controls (FIG. 11). It is filed as in vivo. The procedure:
as §1, §2, §3

Series [5] is described as follows: Water solubility in deionized water. It is filed as physicochemical. Conditions: for Dissolution observed in water: 3-AP: 5 mg in 100 mL, room temperature, 2 hours, prodrug I: 8 mg in 0.5 mL, a few minutes. The procedure: In order to test the water solubility of Prodrug I (disodium salt) compared to 3-AP, the following procedure was used. To test the water solubility of 3-AP in deionized water, 5 mg of 3-AP was placed in a 125 mL erlenmeyer flask to which was added 100 mL of water. The mixture was well shaken at room temperature. […] Total water solubility of 3-AP in deionized water was <1 mg/20 mL. In the case of prodrug I (para), 8 mg of the prodrug was placed in a 50 mL erlenmeyer flask.

Structures can show the parent of a compound that is named as a salt. Bounds are passed on as bounds.

Consider `Cc1ccnc(C=NNC(N)=S)c1N` [Prodrug 3-AMP, 3-amino-4-methylpyridine-2-carboxaldehyde thiosemicarbazone], for which the “Therapeutic effects against L1210 leukemia” value in the series on L1210 leukemia was “much better therapeutic effects”. Also, in the series on M-109 lung carcinoma, the “Therapeutic effects against M-109 lung carcinoma” value is given as “much better therapeutic effects”. In addition, the “Therapeutic effects against A2780 human ovarian carcinoma” value in [1] was “much better therapeutic effects”. The “Antineoplastic activity in comparison with hydroxyurea (HU)” value in series [2] is “significant antineoplastic activity”.
Take `NC(=S)NN=Cc1ncccc1NC(=O)OCc1ccc(OP(=O)(O)O)cc1` [Prodrug I (para)]: the “Course of prodrug concentration with liver S9 fraction” value in series [3] (1 μM, approximately 2.5 mg liver S9 fraction, 37° C.) is “decreased very rapidly”. Besides, in [3] (1 μM, approximately 2.5 mg liver S9 fraction, after 100 minutes at 37° C.), the “Prodrug concentration after incubation with liver S9 fraction” value is “below detection limits”. Further, the Other metabolites found result in series [3] (1 μM, liver S9 fraction, 37° C.) was “no other metabolites were found”. The “Rate of conversion of Prodrug I to 3-AP” value in [3] (liver S9 fraction, 37° C.) is reported as 20 nmole/min/mg rat liver tissue. Further, the metabolised at 1 µM in series [3] (rat, 1 μM, liver S9 fraction, 37° C., read-out: Prodrug recovered as 3-AP) is ~80%. In addition, in series [4], the “Prodrug concentration in culture media alone” value is “relatively stable”. Moreover, the “3-AP found in culture media alone” value in series [4] (HPLC) is recorded as “no 3-AP was found”. The “Reduction of tumor growth compared with 3-AP” value is on record as “significantly more effective” in the series with M109 tumor cells (tumors measured Days 7, 10, 13, 17) and “slightly more effective” with M109 tumor cells (tumors measured Days 7, 10, 13, 17, listed as Prodrug I). For the same molecule, the “Anti-tumor activity compared to 3-AP or the two controls” value in the series on M109 tumor (controls PBS and 10% DMSO) is given as “superior anti-tumor activity”. Besides, the “Reduction of M109 tumor growth compared with 3-AP” value in the series with M109 tumor (mole-to-mole basis) is recorded as “more effective”.
Turning to `NC(=S)NN=Cc1ncccc1NC(=O)OCc1ccc(OP(=O)(O)O)cc1` [Prodrug I (disodium salt)], in [5], the “Dissolution observed in water” value was “readily dissolved”. Also, the “Increase in water solubility over 3-AP” value in series [5] (disodium salt vs 3-AP, deionized water) is “more than 300 fold”. For the same molecule, in series [5] (disodium salt, deionized water, read-out: Total water solubility in deionized water), the solubility was ≥ 16 mg/mL.
On to `NC(=S)NN=Cc1ncccc1N` [Prodrug 3-AP, 3-aminopyridine-2-carboxaldehyde thiosemicarbazone], for which, in [5], the “Dissolution observed in water” value is given as “not totally dissolved”. The “Total water solubility in deionized water” value in series [5] (120 min) is < 1 mg/20 mL. In addition, the “Stability of recovered 3-AP in liver S9 fraction” value in [3] (liver S9 fraction) is given as “stable”. Moreover, in the series with L1210 leukemia, the “Therapeutic effects against L1210 leukemia” value is reported as “much better therapeutic effects”. Moreover, the “Therapeutic effects against M-109 lung carcinoma” value with M-109 lung carcinoma was “much better therapeutic effects”. The “Therapeutic effects against A2780 human ovarian carcinoma” value in [1] is recorded as “much better therapeutic effects”. In addition, the “Antineoplastic activity in comparison with hydroxyurea (HU)” value in [2] was “significant antineoplastic activity”.
